In this assay the target is T1, CXCR3 (Homo sapiens, UniProt P49682).
T1 sequence (P49682 1-368): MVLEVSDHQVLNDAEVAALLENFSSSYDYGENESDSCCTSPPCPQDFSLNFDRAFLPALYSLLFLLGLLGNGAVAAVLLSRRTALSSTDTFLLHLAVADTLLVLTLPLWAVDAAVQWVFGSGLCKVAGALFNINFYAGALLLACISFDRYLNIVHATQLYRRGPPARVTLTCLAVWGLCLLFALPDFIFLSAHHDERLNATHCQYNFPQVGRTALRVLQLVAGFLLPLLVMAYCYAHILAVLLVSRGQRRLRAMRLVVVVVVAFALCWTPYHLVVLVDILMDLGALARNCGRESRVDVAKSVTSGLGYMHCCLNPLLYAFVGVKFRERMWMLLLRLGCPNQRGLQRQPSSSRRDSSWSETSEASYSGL
Description: 125I-IP-10 binding assay. The note with it: displacement of 125I-IP-10.

As usually defined, the IC50 is the concentration that gives 50% inhibition. A lower IC50 goes with inhibition by little substance. For the molecule `FC(F)(F)c1cnc(N2CCC3(CC2)NCCc2c3[nH]c3ccccc23)c(Cl)c1` [Example 1], the IC50 is under 0.5 µM. The same measure for `FC(F)(F)c1ccc(N2CCC3(CC2)NCCc2c3[nH]c3ccccc23)nc1` [Example 2]: over 1 µM; for `Clc1cnc(N2CCC3(CC2)NCCc2c3[nH]c3ccccc23)c(Cl)c1` [Example 3]: over 1 µM; for `Cc1cc(C(F)(F)F)cnc1N1CCC2(CC1)NCCc1c2[nH]c2ccccc12` [Example 4]: over 1 µM. Then `FC(F)(F)c1ccc(N2CCC3(CC2)NCCc2c3[nH]c3ccccc23)c(Cl)c1` [Example 5], with under 0.5 µM. The same measure for `FC(F)(F)c1ccc(Cl)c(N2CCC3(CC2)NCCc2c3[nH]c3ccccc23)c1` [Example 6]: over 1 µM; for `FC(F)(F)c1ccc(N2CCC3(CC2)NCCc2c3[nH]c3ccccc23)cc1` [Example 7]: over 1 µM. As for `O=[N+]([O-])c1cc(C(F)(F)F)ccc1N1CCC2(CC1)NCCc1c2[nH]c2ccccc12` [Example 8], the IC50 was over 1 µM.

As for `NC(=O)c1cc(C(F)(F)F)ccc1N1CCC2(CC1)NCCc1c2[nH]c2ccccc12` [Example 9], the IC50 lay in the range of 0.5 to 1 µM. The same measure for `N#Cc1cc(C(F)(F)F)ccc1N1CCC2(CC1)NCCc1c2[nH]c2ccccc12` [Example 10]: over 1 µM; for `FC(F)(F)c1ccc(N2CCC3(CC2)NCCc2c3[nH]c3ccccc23)c(C(F)(F)F)c1` [Example 11]: over 1 µM; for `Fc1cc(C(F)(F)F)ccc1N1CCC2(CC1)NCCc1c2[nH]c2ccccc12` [Example 12]: over 1 µM. For the molecule `FC(F)(F)c1ccc(N2CCC3(CC2)NCCc2c3[nH]c3ccccc23)c(Br)c1` [Example 13], the IC50 is over 1 µM. The molecule `FC(F)(F)c1cc(Cl)c(N2CCC3(CC2)NCCc2c3[nH]c3ccccc23)c(Cl)c1` [Example 14] came in with an IC50 of over 1 µM. Molecule `O=[N+]([O-])c1cc(C(F)(F)F)cc(Cl)c1N1CCC2(CC1)NCCc1c2[nH]c2ccccc12` [Example 15] yielded an IC50 of under 0.5 µM. The same measure for `Clc1ccc(N2CCC3(CC2)NCCc2c3[nH]c3ccccc23)c(Cl)c1` [Example 16]: over 1 µM; for `Clc1cc(I)ccc1N1CCC2(CC1)NCCc1c2[nH]c2ccccc12` [Example 17]: over 1 µM. The same measure for `O=[N+]([O-])c1ccc(N2CCC3(CC2)NCCc2c3[nH]c3ccccc23)c(Cl)c1` [Example 18]: over 1 µM; for `COC(=O)c1ccc(N2CCC3(CC2)NCCc2c3[nH]c3ccccc23)c(Cl)c1` [Example 19]: over 1 µM.

The record behind these values is patent US20070149557A1, “CXCR3 antagonists” (Amgen Inc., priority 2005, published 2007).
